Series [1] in a line: Chemical stability at pH 4.5 and pH 7.4 in PBS. It counts as physicochemical. The settings on record: for Chemical Stability, pH 4.5: PBS pH 4.5, 37° C.; for Chemical Stability, pH 4.5 / Chemical Stability, pH 7.4: 5 μM, up to 240 min; for Chemical Stability, pH 7.4: PBS pH 7.4, 37° C.; for Chemical stability: Table 6, pH not stated. The procedure:
The assay was performed in duplicate. […] Samples were incubated at 37° C. at 600 rpm.

Series [2] is described as follows: Metabolic stability in rat liver microsomes. Type of series: in vitro ADME. Conditions: rat liver microsomes, 1 μM, NADPH; Table 6, unit not given. The procedure: Rat liver microsomes were obtained from qualified vendors and metabolic stability of the test compound was determined at 1 μM. The compound was incubated at 37° C. with 0.5 mg microsome/mL in the buffer in the presence of 1 mM NADPH. Aliquots of 50 μL were taken from the reaction solution at 0, 15, 30, 45 and 60 minutes. […] All samples were analyzed in duplicates.

A short description of series [3]: Permeability study using Caco-2 cell monolayers. The settings on record: human, Caco-2, pH 7.4.
Protocol: CaCO-2 cells were cultured, and a monolayer was developed in-house in 96 well-plates over 18 days using standard protocol. The monolayer was tested for the integrity of the cell monolayer before using.
Test compounds were added to the transwell insert (apical compartment) to determine the rate of drug transport in the apical to basolateral direction. To determine the rate of drug transport in the basolateral to apical direction, the test compound was added to the receiver plate wells (basolateral compartment). Appropriate amount of HBSS (10 mM HEPES, pH 7.4) was added in both compartments for a final volume of 200 μL. The plates were incubated at 37° C. with shaking at 150 rpm on a rotary shaker for 2 hours. At the end of the transport period, 50 μL from the apical and basolateral wells were collected and 4 volume of cold acetonitrile containing internal standards (IS: 100 nM alprazolam, 200 nM labetalol, and 2 μM ketoprofen) was added to each sample to terminate the reaction. The samples were vortexed and centrifuged at 3,800 g for 20 minutes. An aliquot of 150 μL of the supernatant was used for LC/MS/MS analysis. All samples were analyzed in duplicates. Samples were analyzed through LC/MS/MS for estimating the permeability and efflux of the compounds across Caco-2 cell monolayers.
A further series has as its system Caco-2 cell monolayers. The series can be described thus: Permeability study using Caco-2 cell monolayers. The settings on record: 2 hours; for Permeability A-B: apical to basolateral; for Permeability B-A: basolateral to apical. On the technique in general: Caco-2 cells form a polarised layer with tight junctions and transporters.
Series [4] in a line: Pharmacokinetic studies in rats: plasma and lung. The settings on record: rat, single i.v., 2 mg/kg dexamethasone equivalent. Here is the method:
(§1) Six to eight weeks old Sprague-Dawley rats were procured from a qualified provider. Test compounds were introduced in rats by a single intravenous administration. […] Blood samples (0.1, 0.2 or 0.5 mL) were collected with a 1 mL syringe containing anticoagulants K2EDTA. Blood samples were centrifuged to obtain plasma for analysis. […] After collection at each time point, lung samples were frozen at −75° C. Prior to analysis, a portion of lung sample was weighed and homogenized with phosphate buffer saline. […] Data analysis and pharmacokinetic parameters were generated using WinNonlin software.

The next series is described as follows: Rat plasma stability. Type of series: in vitro ADME. The settings on record: for Rat plasma stability: Table 6, unit not given; for half-life at 5 μM: rat, plasma. Here is the method:
Rat and human plasma were obtained from qualified vendors. […] The assay was performed in duplicate.

Series [5] has as its target T1, Glucocorticoid receptor (GR) (Homo sapiens, UniProt P04150).
T1 sequence (P04150 1-777): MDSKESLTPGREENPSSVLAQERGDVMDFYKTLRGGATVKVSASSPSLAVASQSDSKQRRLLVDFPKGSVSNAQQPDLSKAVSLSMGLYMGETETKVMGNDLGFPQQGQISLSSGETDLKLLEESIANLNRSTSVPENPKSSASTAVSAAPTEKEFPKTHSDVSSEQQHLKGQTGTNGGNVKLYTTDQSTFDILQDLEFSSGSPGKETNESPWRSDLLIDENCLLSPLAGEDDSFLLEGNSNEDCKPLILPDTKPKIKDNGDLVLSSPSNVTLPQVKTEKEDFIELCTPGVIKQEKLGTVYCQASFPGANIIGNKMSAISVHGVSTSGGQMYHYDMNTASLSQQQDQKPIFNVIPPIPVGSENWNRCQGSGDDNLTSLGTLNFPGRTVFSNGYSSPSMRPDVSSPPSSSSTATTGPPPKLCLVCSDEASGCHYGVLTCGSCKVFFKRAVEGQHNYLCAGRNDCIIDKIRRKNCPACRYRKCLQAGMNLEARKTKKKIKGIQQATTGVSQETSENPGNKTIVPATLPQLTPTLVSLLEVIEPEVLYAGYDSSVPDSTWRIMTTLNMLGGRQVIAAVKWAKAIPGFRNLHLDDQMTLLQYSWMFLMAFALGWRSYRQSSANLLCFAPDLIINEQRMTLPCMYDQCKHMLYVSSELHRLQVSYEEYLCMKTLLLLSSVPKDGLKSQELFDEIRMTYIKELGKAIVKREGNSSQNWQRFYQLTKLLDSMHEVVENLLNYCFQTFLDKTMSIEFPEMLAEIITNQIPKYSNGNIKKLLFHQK
The series can be described thus: TR-FRET GR competitive binding assay. Conditions: 0.1 μM. Here is the method: Glucocorticoid receptor (GR) binding of prodrugs was determined using TR-FRET GR competitive binding assay. Three-point (0.1, 1 and 10 μM) binding was evaluated for each prodrug.
For orientation: TR-FRET usually uses a lanthanide donor and a delayed reading to cut background.

The conditions of series [6]: Sprague-Dawley, rat, in vivo, iv, 2 mg/kg. The procedure:
as §1, with “1 ml” for “1 mL”, “of brain” for “of lung”

The nature of another series: in vitro. Conditions: human, plasma.

Read-outs that look alike come from different tables or passages of the source.

Protocol for Human plasma stability: (§2) Rat and human plasma were obtained from qualified vendors. 5 μL of 500 μM of the test article solution was added to 495 μL of pre-incubated human or rat plasma to reach a final concentration of 5 μM. The final concentration of organic solvents was not more than 0.5%. The assay was performed in duplicate. The reaction samples were incubated in a 37° C. water bath with shaking at approximately 60 rpm. 50 μL of the reaction samples were collected at 0, 30, 60, 120 and 180 minutes. The reaction was stopped by adding 300 μL of room temperature quench solution (acetonitrile containing internal standards (IS, 200 nM labetalol, 100 nM alprazolam and 2 μM ketoprofen)). The samples were vortexed for 5 minutes followed by centrifugation of the samples at 3,220 g for 30 minutes at room temperature to precipitate the protein. 100 μL of the supernatant was transferred to a new plate and diluted with 100 μL or 200 μL water according to the LC/MS signal response and peak shape. The samples were mixed well and analyzed using LC/MS/MS. The remaining percentage of parent drug versus reaction time was used to calculate the t1/2 value.
Protocol for in vitro: as §2

Consider `CC(C)[C@H](N)C(=O)Nc1ccccc1C1(C(=O)OCC(=O)[C@@]2(O)[C@H](C)C[C@H]3[C@@H]4CCC5=CC(=O)C=C[C@]5(C)[C@@]4(F)[C@@H](O)C[C@@]32C)CC1.Cl` [Compound 25], for which, in series [1], the “Chemical Stability, pH 4.5” value was “Yes”; the “Chemical Stability, pH 7.4” value is “Yes”; the Chemical stability result is on record as “Yes”. In addition, the RLM in series [2] was 38. For the same compound, the efflux ratio at 2 h in series [3] turned out to be 170. For the same compound, in the series with Caco-2 cell monolayers, the “Permeability A-B” value was “A-B = 0.065 × 10^−6, cm/s” and the “Permeability B-A” value is listed as “B-A = 11 × 10^−6, cm/s”. In addition, in series [4] (15 min), the “Conc in Prodrug in lung” value stood at 3895 ± 368 and the “Conc of Prodrug in plasma” value is listed as 742 ± 96. Besides, in series [4] (60 min), the “Conc in Prodrug in lung” value amounted to 5827 ± 1483 and the “Conc of Prodrug in plasma” value is 367 ± 55. For the same compound, in series [4] (360 min), the “Conc in Prodrug in lung” value was 1425 ± 509 and the “Conc of Prodrug in plasma” value is recorded as 34 ± 10. Moreover, the Rat plasma stability in “Rat plasma stability” is >240. Besides, the half-life at 5 μM in “Rat plasma stability” (read-out: Rat Plasma Stability t½) was > 4 h. For the same compound, in series [5], the “GR Binding Data” value turned out to be 19%. Moreover, the half-life at 5 μM in “Human plasma stability” was > 4 h.

`COc1cccc(NC(=O)[C@@H](N)C(C)C)c1C(=O)OCC(=O)[C@@]1(O)[C@H](C)CC2[C@@H]3CCC4=CC(=O)C=C[C@]4(C)[C@@]3(F)[C@@H](O)C[C@@]21C.Cl` (stereo partly drawn) [Compound 9]: in series [1], the “Chemical Stability, pH 4.5” value is “Yes”; the “Chemical Stability, pH 7.4” value is on record as “Yes”; the Chemical stability result is listed as “Yes”. The compound also returned an RLM in [2] of 24. Further, the efflux ratio at 2 h in [3] was 279. In the series with Caco-2 cell monolayers, the “Permeability A-B” value is “A-B = 0.025 × 10^−6, cm/s” and the “Permeability B-A” value is “B-A = 7 × 10^−6, cm/s”. Also, in series [4] (15 min), the “Conc in Prodrug in lung” value is recorded as 992 ± 422 and the “Conc of Prodrug in plasma” value worked out at 694 ± 83. Besides, in [4] (60 min), the “Conc in Prodrug in lung” value is 959 ± 283 and the “Conc of Prodrug in plasma” value came out at 244 ± 13. In [4] (360 min), the “Conc in Prodrug in lung” value is 433 ± 212 and the “Conc of Prodrug in plasma” value worked out at 21 ± 1.5. In addition, the Rat plasma stability in the series “Rat plasma stability” is recorded as >240. In addition, the half-life at 5 μM in the series “Human plasma stability” is > 4 h.

Take `CC(C)C(C(=O)N1CCCC1C(=O)N(C)CC(C)(C)C(C)C(=O)OCC(=O)[C@@]1(O)[C@H](C)C[C@H]2[C@@H]3CCC4=CC(=O)C=C[C@]4(C)[C@@]3(F)[C@@H](O)C[C@@]21C)N(C)C` (stereo partly drawn) [Compound 33]: in [6], the “Conc of Dex in plasma” value was found to be 18.8 ± 7.75 and the “Conc of Prodrug in plasma” value came to 6549 ± 1537. For the same compound, in the series “Rat plasma stability”, the half-life at 5 μM is > 4 h. The half-life at 5 μM in “in vitro” is > 4 h.

For orientation: efflux ratio means the permeability from basolateral to apical divided by that in the opposite direction, in the common usage.
